This assay relates to PLD activity in 786-O cells. The assay is described as follows: PLD activity in 786-O cells. The assay is classed as cell-based, human. The settings on record: no activated Ras. From the text:
The PLD activity elevated in response to stress in the MDA-MB-231 cells was dependent on Ras in the MDA-MB-231, and also in the Calu1, and T24 cancer cells (Shi et al., “Elevated Phospholipase D Activity in Human Cancer Cells with Activating Ras Mutations Provides Survival Signal,” Cancer Lett. 258:268-75 (2007), which is hereby incorporated by reference in its entirety). […] This is interesting in that there is an activated K-Ras gene in the MDA-MB-231 cells. Similarly, there are activating mutations to Ras genes in both the Calu1 and T24 cells. It was recently reported that the PLD activity in the T24 cells, where H-Ras is activated, is dependent on the expression of H-Ras; and the PLD activity in the Calu-1 cells, where K-Ras is activated, is dependent on the expression of K-Ras (Shi et al., “Elevated Phospholipase D Activity in Human Cancer Cells with Activating Ras Mutations Provides Survival Signal,” Cancer Lett. 258:268-75 (2007), which is hereby incorporated by reference in its entirety). […] However, it is also possible that the increased GTP bound Ras represents activation of the non-mutated Ras—either the Ras protein encoded by the non-mutated wild type allele or other Ras isoforms. In the case of the MDA-MD-231 that would mean that H-Ras was being activated or the wild type K-Ras encoded by the non-mutant allele. […]

In the case of `C=CCc1ccc(O)c(-c2ccc(O)c(CC=C)c2)c1` [honokiol, Honokiol], the PLD activity entry is listed as “blocks”.

Values taken from patent US20120301895A1, “METHODS OF MODULATING BINDING OF SON OF SEVENLESS TO PHOSPHATIDIC ACID AND IDENTIFYING COMPOUNDS THAT MODULATE SUCH BINDING” (THE RESEARCH FOUNDATION OF STATE UNIVERSITY OF NEW YORK, priority 2007, published 2012).
